From US9175044B2, “Derivatives of glyco-CF2-serine and glyco-CF2-threonine” (TFCHEM, priority 2010, dated 2015)

How the values were obtained:
[1] = test system: neonatal human skin fibroblasts (Cell line: CCD-27SK); test: Preservation of neonatal skin fibroblasts under starvation conditions (Trypan blue viability assay); assay type: cell-based; conditions: for effect on skin fibroblasts under unfavorable conditions for growth: 5 mg/ml in starvation medium, 7 days
Method: • The neonatal human skin fibroblasts (Cell line: CCD-27SK, ATCC number CRL-1475) were grown with DMEM medium supplemented with Fetal Bovine Serum 10% final, antibiotics (Penicillin/Streptomycin) 1% final and Amphotericin B 0.1% final. • Fibroblasts were grown in 75 cm^2 culture flask to 80% confluence, in 37° C. and 10% CO2 incubator. The medium was changed every two days by 37° C. preheated fresh medium. Starvation Medium • This medium was composed of 45% subculture medium without Fetal Bovine Serum mixed with 55% of Phosphate Buffer Saline 1× containing EDTA (final concentration of 0.45 mM). This was referred to as serum free or starvation medium. Product Preparation • The compounds 13(b)αd1 and 13(b)αd2 (M=479.9 g/mol) were diluted in starvation medium to 5 mg/ml final and pH was adjusted at 7.4 by addition of NaOH 1N. […] So, only the dead cells are blue at microscopic observation. • For sampling, 110 μl of Trypan Blue (SIGMA T8154) was added to 110 μl of trypsinated cell suspension of matching well for counting. • 200 μl of the trypan blue/cell mixture are dropped to a hemacytometer. Cells are counting by using a Neubauer-counting chamber. The unstained (viable) and stained (nonviable) cells are counted separately on 9 area of a large square (1 mm^2) and added to obtain the total number of cells per sample. An average of three counts was used to calculate the viability percentage as: [number of viable cells/total number of cells]*100 • The cell viability percentages from cultures under starvation conditions were compared with control culture for several days after their addition (D0, D3, D4, D5, D6, D7). Results

β-galactosidase = target: T1, β-galactosidase (Escherichia coli, UniProt P00722); assay type: in vitro ADME; conditions: 24 h at 37° C.; for hydrolysis after incubation with β-galactosidase, mass spectra with vs without enzyme: ammonium acetate buffer 10 mM pH 7, β-galactosidase 4.5 U, MS (ESI)
T1 construct: purchased Sigma 48275
T1 sequence (P00722 2-1024): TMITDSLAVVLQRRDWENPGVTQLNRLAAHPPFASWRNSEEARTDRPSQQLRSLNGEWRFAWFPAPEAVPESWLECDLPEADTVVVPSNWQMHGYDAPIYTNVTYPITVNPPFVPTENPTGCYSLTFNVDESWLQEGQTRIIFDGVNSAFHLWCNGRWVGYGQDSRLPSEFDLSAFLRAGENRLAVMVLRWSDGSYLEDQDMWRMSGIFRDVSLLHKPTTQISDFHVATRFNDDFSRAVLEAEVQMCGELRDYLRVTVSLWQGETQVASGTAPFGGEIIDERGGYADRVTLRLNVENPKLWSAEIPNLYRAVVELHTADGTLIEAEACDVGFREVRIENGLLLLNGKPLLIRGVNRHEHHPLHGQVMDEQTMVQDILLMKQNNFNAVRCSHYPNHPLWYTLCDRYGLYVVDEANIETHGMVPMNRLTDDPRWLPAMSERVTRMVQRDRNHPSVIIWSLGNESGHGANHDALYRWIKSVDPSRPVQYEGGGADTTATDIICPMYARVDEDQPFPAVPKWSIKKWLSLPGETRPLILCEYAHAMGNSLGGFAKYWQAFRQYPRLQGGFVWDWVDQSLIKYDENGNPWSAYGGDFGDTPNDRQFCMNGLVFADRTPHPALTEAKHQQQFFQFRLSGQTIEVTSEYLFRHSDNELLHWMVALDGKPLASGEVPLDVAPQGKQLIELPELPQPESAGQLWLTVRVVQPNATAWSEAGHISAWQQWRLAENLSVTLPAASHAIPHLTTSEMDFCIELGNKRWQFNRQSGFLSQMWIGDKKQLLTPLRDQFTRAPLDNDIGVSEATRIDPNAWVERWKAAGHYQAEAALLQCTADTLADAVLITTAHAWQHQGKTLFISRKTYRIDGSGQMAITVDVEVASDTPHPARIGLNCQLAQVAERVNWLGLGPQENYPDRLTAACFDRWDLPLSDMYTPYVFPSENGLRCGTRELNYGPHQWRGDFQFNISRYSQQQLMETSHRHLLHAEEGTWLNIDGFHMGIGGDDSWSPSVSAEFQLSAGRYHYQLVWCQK
Method: The enzymatic stability has been performed with compound Ad1 and Ad2 according to the invention and compound B used as a reference compound to control the efficacy of the β-galactosidase. Both compounds have been treated with β-galactosidase. The stability of compound Ad1 and Ad2 has been assessed by mass spectrum (MS) analysis after incubation with β-galactosidase. The samples have been injected and ionized by electrospray (ES) (in positive and negative mode). The procedure has been adapted from Maljaars et al. J. Comb. Chem. 2006, 8, 812-819.
Test compound Ad1 (12 μmol, 5.3 mg) in 1.5 mL ammonium acetate buffer (10 mM, pH 7) was kept 24 h at 37° C. in the presence and absence of β-galactosidase (4.5 U, 32 μL of a 1 mg·mL^−1 solution in ammonium acetate buffer, (48275 sigma, 140 U per mg)). 300 μL of the sample was filtered through a 3-kDa-cutoff centrifugal filter (Millipore), and the filter was washed with H2O (2×300 μL). The obtained solutions were diluted in water/methanol 1:1 (3 μL in 1 mL).
Test compound Ad2 (12 μmol, 5.3 mg) has been treated in the presence and absence of β-galactosidase following the same process.
These samples of compound Ad1 and Ad2 in presence of β-galactosidase have been submitted to mass spectra and compared to the mass spectra of compound Ad1 and Ad2 in absence of β-galactosidase.
The two samples were also analyzed by F-NMR to confirm that the test compound Ad1 and Ad2 were not cleaved by the β-galactosidase.
In parallel, p-nitrophenyl-β-galactoside (compound B, 12 μmol, 3.6 mg) in 1.5 mL ammonium acetate buffer (10 mM, pH 7) was kept 24 h at 37° C. in the presence and absence of β-galactosidase (4.5 U, 32 μL of a 1 mg·mL^−1 solution in ammonium acetate buffer (48275 sigma, 140 U per mg)).
The optical density (OD) of the two samples was measured at 420 nm to verify that the β-galactosidase is working and that degradation occurs on compound B (OD420 with β-galactosidase=1.5786/OD420 without β-galactosidase=0.0465).

α-galactosidase = target: T2, α-galactosidase (Coffea arabica, UniProt Q42656); test: Enzymatic stability of α-Gal-CF2-Ser pseudo-glycosidic bond with α-galactosidase; assay type: in vitro ADME; conditions: 24 h at 37° C.; for hydrolysis after incubation with α-galactosidase, mass spectra with vs without enzyme: ammonium acetate buffer 10 mM pH 7, α-galactosidase 2.25 U, MS; for cleavage by α-galactosidase, F-NMR analysis: ammonium acetate buffer pH 7, α-galactosidase 2.25 U
T2 construct: purchased Sigma G8507
T2 sequence (Q42656 16-378): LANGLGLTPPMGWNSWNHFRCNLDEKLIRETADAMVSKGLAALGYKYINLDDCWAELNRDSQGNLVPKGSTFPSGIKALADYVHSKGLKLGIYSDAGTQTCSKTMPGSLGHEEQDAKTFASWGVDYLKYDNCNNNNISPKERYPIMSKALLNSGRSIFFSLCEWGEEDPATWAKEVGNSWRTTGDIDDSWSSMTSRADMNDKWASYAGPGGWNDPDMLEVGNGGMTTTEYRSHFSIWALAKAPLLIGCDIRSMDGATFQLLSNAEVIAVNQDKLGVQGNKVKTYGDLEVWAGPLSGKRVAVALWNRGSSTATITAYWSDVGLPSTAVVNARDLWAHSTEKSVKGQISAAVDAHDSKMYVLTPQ
Method: The enzymatic stability has been performed with compounds Cd1, Cd2, Dd1 and Dd2 according to the invention and compound F was used as a reference compound to control the efficacy of the α-galactosidase. All the compounds have been treated with α-galactosidase. The stability of compounds Cd1, Cd2, Dd1 and Dd2 has been assessed by MS analysis after incubation with α-galactosidase. The procedure has been adapted from Maljaars et al. J. Comb. Chem. 2006, 8, 812-819.
Test compound Cd1 ([…], 1.8 mg) in 0.75 mL ammonium acetate buffer (10 mM, pH 7) was kept 24 h at 37° C. in the presence and absence of α-galactosidase (2.25 U, 41 μL of a 3.7 mg·mL^−1 suspension in ammonium sulphate (G8507 sigma, 14.7 U/mg)). 300 μL of the samples were filtered through a 3-kDa-cutoff centrifugal filter (Millipore) and the filter was washed with H2O (2×300 μL). The resultant solutions were diluted in water/methanol 1:1 (3 μL in 1 mL);
Test compound Cd2 ([…], 5.3 mg) has been treated in the presence and absence of α-galactosidase following the same process.
The samples of compound Cd1 and Cd2 in presence of α-galactosidase have been analyzed by mass spectrometry and their spectra compared to the mass spectra of compound Cd1 and Cd2 in absence of α-galactosidase.
The same procedure was applied to compound Dd1 ([…], 2.6 mg) and Dd2 ([…], 2.6 mg).
In parallel, p-nitrophenyl-α-galactoside (compound F, 6 μmol, 1.8 mg) in 0.75 mL of ammonium acetate buffer (10 mM, pH 7) was kept 24 h at 37° C. in the presence and absence of α-galactosidase 2.25 U, 41 μL of a 3.7 mg·mL^−1 suspension in ammonium sulphate ((G8507 sigma) 14.7 U/mg). The OD of the two samples was measured at 420 nm to verify that the α-galactosidase is working and that degradation occurs on compound F (OD420 with α-galactosidase=1.6303/OD420 without α-galactosidase=0.0124).

[2] = ammonium acetate buffer pH 7, β-galactosidase 4.5 U

SMILES	hydrolysis after incubation with α-galactosidase, mass spectra with vs without enzyme (α-galactosidase)	cleavage by α-galactosidase, F-NMR analysis (α-galactosidase)	other results
C[C@H](NC(=O)[C@H](C)NC(=O)C(N)CC(F)(F)[C@H]1O[C@H](CO)[C@H](O)[C@H](O)[C@H]1O)C(=O)O (single isomer, unassigned) [13(b)αd1]			effect on skin fibroblasts under unfavorable conditions for growth [1]: preservative effect; viability at 5000 µg/mL ([1]; Homo sapiens, CCD-27Sk, 168 h, 5 mg/ml in starvation (serum free) medium, up to 7 days of incubation, Trypan blue exclusion, read-out: fibroblast viability): ~95%
C[C@H](NC(=O)[C@H](C)NC(=O)C(N)CC(F)(F)[C@@H]1O[C@H](CO)[C@H](O)[C@H](O)[C@H]1O)C(=O)O (stereo partly shown) [Ad2]			hydrolysis after incubation with β-galactosidase, mass spectra with vs without enzyme (β-galactosidase): no hydrolysis occurs; cleavage by β-galactosidase, F-NMR analysis (β-galactosidase; [2]): not cleaved
NC(CC(F)(F)[C@H]1O[C@H](CO)[C@H](O)[C@H](O)[C@H]1O)C(=O)O (stereo partly shown) [Cd1]	no hydrolysis occurs	not cleaved	
C[C@H](NC(=O)[C@H](C)NC(=O)C(N)CC(F)(F)[C@H]1O[C@H](CO)[C@H](O)[C@H](O)[C@H]1O)C(=O)O (single isomer, unassigned) [Dd2]	no hydrolysis occurs	not cleaved	
C[C@H](NC(=O)[C@H](C)NC(=O)C(N)CC(F)(F)[C@H]1O[C@H](CO)[C@H](O)[C@H](O)[C@H]1O)C(=O)O (single isomer, unassigned) [Dd1]	no hydrolysis occurs	not cleaved	
C[C@H](NC(=O)[C@H](C)NC(=O)C(N)CC(F)(F)[C@H]1O[C@H](CO)[C@H](O)[C@H](O)[C@H]1O)C(=O)O (single isomer, unassigned) [13(b)αd2]			effect on skin fibroblasts under unfavorable conditions for growth [1]: preservative effect
C[C@H](NC(=O)[C@H](C)NC(=O)C(N)CC(F)(F)[C@@H]1O[C@H](CO)[C@H](O)[C@H](O)[C@H]1O)C(=O)O (stereo partly shown) [Ad1]			hydrolysis after incubation with β-galactosidase, mass spectra with vs without enzyme (β-galactosidase): no hydrolysis occurs; cleavage by β-galactosidase, F-NMR analysis (β-galactosidase; [2]): not cleaved
NC(CC(F)(F)[C@H]1O[C@H](CO)[C@H](O)[C@H](O)[C@H]1O)C(=O)O (stereo partly shown) [Cd2]	no hydrolysis occurs	not cleaved	
O=[N+]([O-])c1ccc(O[C@@H]2O[C@H](CO)[C@H](O)[C@H](O)[C@H]2O)cc1 [B, p-nitrophenyl-β-galactoside, reference compound]			visual observation in the presence of β-galactosidase (decomposition) (β-galactosidase; [2]): yellow coloration was observed
